Laboratory results taken from US20260115122A1, “PERSONAL CARE COMPOSITIONS COMPRISING PANCRATIUM MARITIMUM” (GALDERMA HOLDING SA, priority 2022, published 2026).

System: Normal Human Epidermal Melanocytes darkly-pigmented (NHEM-DP)
Assay: Melanin content (melanin reduction) assay
Type: cell-based
Details: 72 h treatment, test product 0.004%, n=3, FIG. 2
Description: Normal Human Epidermal Melanocytes—NHEMs-DP. Normal Human Epidermal Melanocytes darkly-pigmented (NHEM-DP; Thermo Fisher Scientific, C1025C) were grown in M254 medium (Thermo Fisher Scientific, M254500) supplemented with Human Melanocyte Growth Supplement (HMGS; Thermo Fisher Scientific, S0025) and antibiotics (Gentamycin, Thermo Fisher Scientific, 15710049). The cells were maintained in a humidified incubator at 37° C. with a 5% CO2 atmosphere.
At the end of treatment, NHEM-DP cells (n=3) were lysed using NaOH (1N; Merck, 109956) solution. From the collected extracts, the protein content was quantified by a colorimetric assay (Pierce Coomassie Protein Assay Kit, Thermo Fischer Scientific, 23200) using a spectrophotometer (GloMax Explorer GM3500, Microplate Reader) for reading of the optical density at 600 nm. The melanin content was determined after sample heating for 1 h at 80° C. for its solubilization and reading of the optical density at 490 nm. Afterwards, the amount of melanin was determined on the basis of a standard curve using synthetic melanin (Sigma Aldrich, 8631) and then normalized to the total protein content. […]
At the end of the treatments, intracellular melanin was extracted from cell cultures and analyzed as described in materials and methods in Example 1. […]

O=c1cc(CO)occ1O [Kojic acid]
melanin content vs untreated control: significantly decreased the melanin content
